Assay results reported in the NIST ThermoML archive (doi:10.1021/acs.jced.8b00176).

Assay: xn = mol fraction of the nth substance listed
Conditions: 100 kPa, Liquid; for viscosity: Falling or rolling sphere viscometry; for speed of sound: Frequency=3 MHz, Single path-length method; for mass density: Vibrating tube method

CCCCn1cc[n+](C)c1.O=S(=O)([O-])C(F)(F)F [1-butyl-3-methylimidazolium trifluoromethanesulfonate] + CC#N
Conditions	mass density [kg/m3]	speed of sound [m/s]	viscosity [mPa·s]
298.15 K, x1 = 0.0911	958.58	1306.2	0.94
298.15 K, x1 = 0.2023	1074.82	1330.8	1.74
298.15 K, x1 = 0.3029	1137.12	1347.2	4.03
298.15 K, x1 = 0.3998	1179	1359.4	6.63
298.15 K, x1 = 0.4994	1211.16	1368.6	11.09
298.15 K, x1 = 0.5953	1234.14	1375.6	19.01
298.15 K, x1 = 0.7029	1255.85	1382.5	29.57
298.15 K, x1 = 0.8009	1271.78	1386.6	40.36
298.15 K, x1 = 0.9012	1285.59	1389.8	56.57
298.15 K, x1 = 1	1297.46	1393.2	82.38
303.15 K, x1 = 0.0911	954.576	1289.2	0.88
303.15 K, x1 = 0.2023	1070.41	1315.6	1.61
303.15 K, x1 = 0.3029	1132.76	1333	3.64
303.15 K, x1 = 0.3998	1174.94	1346.1	5.9
303.15 K, x1 = 0.4994	1207.1	1355.7	9.65
303.15 K, x1 = 0.5953	1230.08	1363.1	16.22
303.15 K, x1 = 0.7029	1251.97	1370.6	24.73
303.15 K, x1 = 0.8009	1267.97	1374.9	33.14
303.15 K, x1 = 0.9012	1281.58	1378.4	45.89
303.15 K, x1 = 1	1293.46	1382.8	66.69
308.15 K, x1 = 0.0911	949.838	1272.1	0.83
308.15 K, x1 = 0.2023	1066.01	1300.6	1.58
308.15 K, x1 = 0.3029	1128.52	1318.8	3.3
308.15 K, x1 = 0.3998	1170.95	1332.8	5.26
308.15 K, x1 = 0.4994	1202.79	1343	8.46
308.15 K, x1 = 0.5953	1225.98	1350.7	13.86
308.15 K, x1 = 0.7029	1247.9	1358.8	20.9
308.15 K, x1 = 0.8009	1264.18	1363.4	27.82
308.15 K, x1 = 0.9012	1277.73	1367	37.7
308.15 K, x1 = 1	1289.47	1371.7	52.86
313.15 K, x1 = 0.0911	944.8	1255.1	0.79
313.15 K, x1 = 0.2023	1061.34	1285.5	1.48
313.15 K, x1 = 0.3029	1124.17	1304.8	3.01
313.15 K, x1 = 0.3998	1166.71	1319.6	4.73
313.15 K, x1 = 0.4994	1198.75	1330.3	7.48
313.15 K, x1 = 0.5953	1221.91	1338.4	12.06
313.15 K, x1 = 0.7029	1243.95	1347	17.91
313.15 K, x1 = 0.8009	1260.12	1352	23.51
313.15 K, x1 = 0.9012	1273.98	1355.8	31.45
313.15 K, x1 = 1	1285.47	1360.7	43.67
318.15 K, x1 = 0.0911	939.614	1238.2	0.75
318.15 K, x1 = 0.2023	1057.1	1270.6	1.4
318.15 K, x1 = 0.3029	1120.05	1290.8	2.75
318.15 K, x1 = 0.3998	1162.77	1306.4	4.26
318.15 K, x1 = 0.4994	1194.47	1317.7	6.65
318.15 K, x1 = 0.5953	1217.75	1326.2	10.56
318.15 K, x1 = 0.7029	1240.12	1335.4	15.52
318.15 K, x1 = 0.8009	1256.17	1340.7	20.16
318.15 K, x1 = 0.9012	1270.02	1344.7	26.58
318.15 K, x1 = 1	1281.47	1349.9	36.29
323.15 K, x1 = 0.0911	934.671	1221.3	0.71
323.15 K, x1 = 0.2023	1052.93	1255.8	1.32
323.15 K, x1 = 0.3029	1115.71	1276.9	2.54
323.15 K, x1 = 0.3998	1158.5	1293.4	3.88
323.15 K, x1 = 0.4994	1190.69	1305.2	5.95
323.15 K, x1 = 0.5953	1213.78	1314	9.33
323.15 K, x1 = 0.7029	1236.14	1323.8	13.54
323.15 K, x1 = 0.8009	1252.29	1329.5	17.4
323.15 K, x1 = 0.9012	1266.17	1333.7	22.66
323.15 K, x1 = 1	1277.48	1338.8	30.57

CCCCn1cc[n+](C)c1.O=S(=O)([O-])C(F)(F)F [1-butyl-3-methylimidazolium trifluoromethanesulfonate] + CN(C)C=O
Conditions	mass density [kg/m3]	speed of sound [m/s]	viscosity [mPa·s]
298.15 K, x1 = 0.1087	1042.02	1449.2	1.8
298.15 K, x1 = 0.203	1099.89	1437.7	3.67
298.15 K, x1 = 0.2978	1142.86	1425.7	5.22
298.15 K, x1 = 0.409	1181.65	1415	8.68
298.15 K, x1 = 0.4969	1206.07	1409.2	13.24
298.15 K, x1 = 0.603	1230.69	1403	20.91
298.15 K, x1 = 0.699	1249.54	1399.1	32.59
298.15 K, x1 = 0.809	1268.59	1396.7	52.15
298.15 K, x1 = 0.8928	1281.63	1395	68.08
298.15 K, x1 = 1	1297.46	1393.2	82.38
303.15 K, x1 = 0.1087	1037.25	1432.1	1.67
303.15 K, x1 = 0.203	1095.22	1421.9	3.23
303.15 K, x1 = 0.2978	1138.3	1410.9	4.67
303.15 K, x1 = 0.409	1177.22	1401.2	7.62
303.15 K, x1 = 0.4969	1201.73	1396	11.4
303.15 K, x1 = 0.603	1226.44	1390.5	17.79
303.15 K, x1 = 0.699	1245.37	1387	27.14
303.15 K, x1 = 0.809	1264.5	1384.8	42.41
303.15 K, x1 = 0.8928	1277.59	1383.5	54.9
303.15 K, x1 = 1	1293.46	1382.8	66.69
308.15 K, x1 = 0.1087	1032.47	1415.2	1.55
308.15 K, x1 = 0.203	1090.53	1406	2.93
308.15 K, x1 = 0.2978	1133.72	1395.9	4.2
308.15 K, x1 = 0.409	1172.78	1387.2	6.73
308.15 K, x1 = 0.4969	1197.38	1382.9	9.92
308.15 K, x1 = 0.603	1222.2	1378.1	15.23
308.15 K, x1 = 0.699	1241.2	1375	22.89
308.15 K, x1 = 0.809	1260.4	1373.3	35.16
308.15 K, x1 = 0.8928	1273.54	1372.1	44.83
308.15 K, x1 = 1	1289.47	1371.7	52.86
313.15 K, x1 = 0.1087	1027.69	1398.1	1.44
313.15 K, x1 = 0.203	1085.84	1390.4	2.64
313.15 K, x1 = 0.2978	1129.15	1381.4	3.81
313.15 K, x1 = 0.409	1168.33	1373.6	6.01
313.15 K, x1 = 0.4969	1193.03	1369.7	8.71
313.15 K, x1 = 0.603	1217.94	1365.6	13.22
313.15 K, x1 = 0.699	1237.03	1363	19.53
313.15 K, x1 = 0.809	1256.31	1361.7	29.38
313.15 K, x1 = 0.8928	1269.5	1360.9	37.11
313.15 K, x1 = 1	1285.47	1360.7	43.67
318.15 K, x1 = 0.1087	1022.88	1381.2	1.34
318.15 K, x1 = 0.203	1081.13	1375	2.4
318.15 K, x1 = 0.2978	1124.56	1367	3.47
318.15 K, x1 = 0.409	1163.87	1360.1	5.41
318.15 K, x1 = 0.4969	1188.67	1356.8	7.74
318.15 K, x1 = 0.603	1213.69	1353.3	11.6
318.15 K, x1 = 0.699	1232.85	1351.2	16.84
318.15 K, x1 = 0.809	1252.21	1350.3	24.86
318.15 K, x1 = 0.8928	1265.45	1349.7	31.09
318.15 K, x1 = 1	1281.47	1349.9	36.29
323.15 K, x1 = 0.1087	1018.08	1364.5	1.26
323.15 K, x1 = 0.203	1076.42	1359.6	2.2
323.15 K, x1 = 0.2978	1119.97	1352.6	3.17
323.15 K, x1 = 0.409	1159.41	1346.7	4.88
323.15 K, x1 = 0.4969	1184.31	1344	6.89
323.15 K, x1 = 0.603	1209.43	1341.1	10.21
323.15 K, x1 = 0.699	1228.67	1339.5	14.64
323.15 K, x1 = 0.809	1248.11	1339.1	21.29
323.15 K, x1 = 0.8928	1261.4	1338.7	26.39
323.15 K, x1 = 1	1277.48	1338.8	30.57
